According to patent US20220380319A1 (Bial - R&D Investments, S.A., priority 2019, published 2022):
Values after ≈ are worked out from the molar mass of the structure shown.

Key:
acid ceramidase = biological target: T1, acid ceramidase (Homo sapiens, UniProt Q13510); test: Acid ceramidase inhibition, biochemical fluorescent assay with cell lysates overexpressing acid ceramidase, substrate Rbm14-12; conditions: substrate Rbm14-12 6.3 μM
T1 construct: Cell lysates overexpressing acid ceramidase were used as the enzyme source; expressed in transfected cells
T1 sequence (Q13510 22-395): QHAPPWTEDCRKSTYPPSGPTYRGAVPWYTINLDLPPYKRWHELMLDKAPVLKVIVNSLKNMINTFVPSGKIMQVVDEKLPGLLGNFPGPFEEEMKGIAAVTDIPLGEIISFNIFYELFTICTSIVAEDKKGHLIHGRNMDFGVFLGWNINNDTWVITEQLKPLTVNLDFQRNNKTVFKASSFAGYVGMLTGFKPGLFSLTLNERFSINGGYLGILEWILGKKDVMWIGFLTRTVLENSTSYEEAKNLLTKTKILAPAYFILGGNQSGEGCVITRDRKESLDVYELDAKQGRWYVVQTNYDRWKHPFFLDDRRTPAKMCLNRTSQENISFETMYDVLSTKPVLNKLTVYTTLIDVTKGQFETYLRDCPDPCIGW
Summary of the method: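 Lysate of cells overexpressing acid ceramidase (10 μg protein) preincubated with compound dose series 1 hr at RT in 25 mM NaAC, 100 mM NaCl, pH 4.5, then reacted 1 hr with 6.3 μM Rbm14-12. Stopped with NaIO4/glycine buffer pH 10.6, fluorescence ex360/em446; IC50 by four-parameter fit.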

[1] = Compound solubility in water
[2] = pH 4.5, 1 hr preincubation at RT

With `CN1CC(N2CCN(c3cccc4c3ncn4C(=O)NCCc3ccccc3)CC2)C1` [Example 325, 4-(4-(1-Methylazetidin-3-yl)piperazin-1-yl)-N-phenethyl-1H-benzo[d]imidazole-1-carboxamide] the IC50 (acid ceramidase; pH 4.5) was < 200 nM and the solubility [1] was 32 µg/mL (≈ 76.5 µM).

For `O=C(NCCc1ccccc1)n1cnc2c(N3CCN(C4COC4)CC3)cccc21` [Example 326, 4-(4-(Oxetan-3-yl)piperazin-1-yl)-N-phenethyl-1H-benzo[d]imidazole-1-carboxamide], the IC50 (acid ceramidase; pH 4.5) was < 200 nM and the solubility [1] was 21 µg/mL (≈ 51.8 µM).

In the case of `O=C(NCCOc1ccccc1)n1cnc2c(N3CCN(C4COC4)CC3)cccc21` [Example 327, 4-(4-(Oxetan-3-yl)piperazin-1-yl)-N-(2-phenoxyethyl)-1H-benzo[d]imidazole-1-carboxamide], the IC50 (acid ceramidase; pH 4.5) is reported as < 200 nM and the solubility [1] is reported as 25 µg/mL (≈ 59.3 µM).

With `CN1CC(N2CC3CC2CN3c2cccc3c2ncn3C(=O)NCCOc2ccccc2)C1` (stereo not shown) [Example 328, 4-(5-(1-Methylazetidin-3-yl)-2,5-diazabicyclo[2.2.1]heptan-2-yl)-N-(2-phenoxyethyl)-1H-benzo[d]imidazole-1-carboxamide] the IC50 (acid ceramidase; pH 4.5) was < 200 nM and the solubility [1] was 41 µg/mL (≈ 91.8 µM).

In the case of `COc1nc2c(N3CC(N4CCN(C)CC4)C3)cccc2n1C(=O)NCCOc1ccccc1` [Example 329, 2-Methoxy-4-(3-(4-methylpiperazin-1-yl)azetidin-1-yl)-N-(2-phenoxyethyl)-1H-benzo[d]imidazole-1-carboxamide], the IC50 (acid ceramidase; pH 4.5) is reported as > 1000 nM and the solubility [1] is reported as 38 µg/mL (≈ 81.8 µM).

With `CN(C)CC1CN(c2cccc3c2ncn3C(=O)NCCOc2ccccc2)C1` [Example 330, 4-(3-((Dimethylamino)methyl)azetidin-1-yl)-N-(2-phenoxyethyl)-1H-benzo[d]imidazole-1-carboxamide] the IC50 (acid ceramidase; pH 4.5) was < 200 nM and the solubility [1] was 38 µg/mL (≈ 96.6 µM).

In the case of `CN(C)CC1CN(c2cccc3c2ncn3C(=O)NCC#Cc2ccccc2)C1` [Example 331, 4-(3-((Dimethylamino)methyl)azetidin-1-yl)-N-(3-phenylprop-2-yn-1-yl)-1H-benzo[d]imidazole-1-carboxamide], the IC50 (acid ceramidase; pH 4.5) is reported as < 200 nM and the solubility [1] is reported as 22 µg/mL (≈ 56.8 µM).

With `CN1CCN(C2CN(c3cccc4c3ncn4C(=O)NCC#Cc3ccccc3)C2)CC1` [Example 332, 4-(3-(4-Methylpiperazin-1-yl)azetidin-1-yl)-N-(3-phenylprop-2-yn-1-yl)-1H-benzo[d]imidazole-1-carboxamide] the IC50 (acid ceramidase; pH 4.5) was < 200 nM and the solubility [1] was 24 µg/mL (≈ 56 µM).

In the case of `CN1CC(N2CCN(c3cccc4c3ncn4C(=O)NCC#Cc3ccccc3)CC2)C1` [Example 333, 4-(4-(1-Methylazetidin-3-yl)piperazin-1-yl)-N-(3-phenylprop-2-yn-1-yl)-1H-benzo[d]imidazole-1-carboxamide], the IC50 (acid ceramidase; pH 4.5) is reported as < 200 nM and the solubility [1] is reported as 26 µg/mL (≈ 60.7 µM).

For `COc1nc2cc(F)c(N3CCOCC3)cc2n1C(=O)NCCc1ccccc1` [Example 334a, 5-Fluoro-2-methoxy-6-morpholino-N-(2-phenethyl)-1H-benzo[d]imidazole-1-carboxamide], the IC50 (acid ceramidase; pH 4.5) was < 200 nM and the solubility [1] was 3 µg/mL (≈ 7.53 µM).

In the case of `COc1nc2cc(N3CCOCC3)c(F)cc2n1C(=O)NCCc1ccccc1` [Example 334b, 6-fluoro-2-methoxy-5-morpholino-N-(2-phenethyl)-1H-benzo[d]imidazole-1-carboxamide], the IC50 (acid ceramidase; pH 4.5) is reported as < 200 nM and the solubility [1] is reported as 5 µg/mL (≈ 12.5 µM).

In the case of `COc1nc2cc(F)c(N3CCOCC3)cc2n1C(=O)NCCOc1ccccc1` [Example 335a, 5-Fluoro-2-methoxy-6-morpholino-N-(2-phenoxyethyl)-1H-benzo[d]imidazole-1-carboxamide], the IC50 (acid ceramidase; [2]) is reported as < 200 nM and the solubility [1] is reported as 1 µg/mL (≈ 2.41 µM).

With `COc1nc2cc(N3CCOCC3)c(F)cc2n1C(=O)NCCOc1ccccc1` [Example 335b, 6-fluoro-2-methoxy-5-morpholino-N-(2-phenoxyethyl)-1H-benzo[d]imidazole-1-carboxamide] the IC50 (acid ceramidase; [2]) was < 200 nM and the solubility [1] was 7 µg/mL (≈ 16.9 µM).

In the case of `CN1CCN(c2cccc3c2ncn3C(=O)NCC#Cc2ccc(F)cc2)CC1` [Example 336, N-(3-(4-Fluorophenyl)prop-2-yn-1-yl)-4-(4-methylpiperazin-1-yl)-1H-benzo[d]imidazole-1-carboxamide], the IC50 (acid ceramidase; [2]) is reported as < 200 nM and the solubility [1] is reported as 15 µg/mL (≈ 38.3 µM).

For `CN1CCN(c2cccc3c2ncn3C(=O)NCC#Cc2cccc(F)c2)CC1` [Example 337, N-(3-(3-Fluorophenyl)prop-2-yn-1-yl)-4-(4-methylpiperazin-1-yl)-1H-benzo[d]imidazole-1-carboxamide], the IC50 (acid ceramidase; [2]) was < 200 nM and the solubility [1] was 15 µg/mL (≈ 38.3 µM).

In the case of `CN1CCN(c2cccc3c2ncn3C(=O)NCC#Cc2ccccc2F)CC1` [Example 338, N-(3-(2-Fluorophenyl)prop-2-yn-1-yl)-4-(4-methylpiperazin-1-yl)-1H-benzo[d]imidazole-1-carboxamide], the IC50 (acid ceramidase; [2]) is reported as < 200 nM and the solubility [1] is reported as 18 µg/mL (≈ 46 µM).

For `COc1ccc(C#CCNC(=O)n2cnc3c(N4CCN(C)CC4)cccc32)cc1` [Example 339, N-(3-(4-Methoxyphenyl)prop-2-yn-1-yl)-4-(4-methylpiperazin-1-yl)-1H-benzo[d]imidazole-1-carboxamide], the IC50 (acid ceramidase; [2]) was < 200 nM and the solubility [1] was 16 µg/mL (≈ 39.7 µM).

For `COc1cccc(C#CCNC(=O)n2cnc3c(N4CCN(C)CC4)cccc32)c1` [Example 340, N-(3-(3-Methoxyphenyl)prop-2-yn-1-yl)-4-(4-methylpiperazin-1-yl)-1H-benzo[d]imidazole-1-carboxamide], the IC50 (acid ceramidase; [2]) was < 200 nM and the solubility [1] was 13 µg/mL (≈ 32.2 µM).

In the case of `COc1ccccc1C#CCNC(=O)n1cnc2c(N3CCN(C)CC3)cccc21` [Example 341, N-(3-(2-Methoxyphenyl)prop-2-yn-1-yl)-4-(4-methylpiperazin-1-yl)-1H-benzo[d]imidazole-1-carboxamide], the IC50 (acid ceramidase; [2]) is reported as < 200 nM and the solubility [1] is reported as 20 µg/mL (≈ 49.6 µM).

In the case of `C#Cc1ccc(CNC(=O)n2cnc3c(N4CCN(C)CC4)cccc32)cc1` [Example 342, N-(4-Ethynylbenzyl)-4-(4-methylpiperazin-1-yl)-1H-benzo[d]imidazole-1-carboxamide], the IC50 (acid ceramidase; [2]) is reported as < 200 nM and the solubility [1] is reported as 4 µg/mL (≈ 10.7 µM).

An IC50 (acid ceramidase; [2]) of 200 to 1000 nM and a solubility [1] of 24 µg/mL (≈ 58.9 µM) were found for `CN1CCN(CCOc2nc3ccccc3n2C(=O)NCCc2ccccc2)CC1` [Example 343] in this work.

In the case of `CN1CCN(C2CN(c3cccc4c3ncn4C(=O)NCC(C)(C)Oc3ccccc3)C2)CC1` [Example 344, N-(2-Methyl-2-phenoxypropyl)-4-(3-(4-methylpiperazin-1-yl)azetidin-1-yl)-1H-benzo[d]imidazole-1-carboxamide], the IC50 (acid ceramidase; [2]) is reported as < 200 nM and the solubility [1] is reported as 29 µg/mL (≈ 62.7 µM).

For `CN1CCN(c2cccc3c2ncn3C(=O)NCC2Oc3ccccc3O2)CC1` [Example 345, N-(Benzo[d][1,3]dioxol-2-ylmethyl)-4-(4-methylpiperazin-1-yl)-1H-benzo[d]imidazole-1-carboxamide], the IC50 (acid ceramidase; [2]) was < 200 nM and the solubility [1] was 40 µg/mL (≈ 102 µM).

For `CN1CCN(c2cccc3c2ncn3C(=O)NCc2ccc3c(c2)OCO3)CC1` [Example 346, N-(Benzo[d][1,3]dioxol-5-ylmethyl)-4-(4-methylpiperazin-1-yl)-1H-benzo[d]imidazole-1-carboxamide], the IC50 (acid ceramidase; [2]) was < 200 nM and the solubility [1] was 11 µg/mL (≈ 28 µM).

In the case of `CN1CCN(c2cccc3c2ncn3C(=O)NCc2ccn3cccc3c2)CC1` [Example 347, N-(Indolizin-7-ylmethyl)-4-(4-methylpiperazin-1-yl)-1H-benzo[d]imidazole-1-carboxamide], the IC50 (acid ceramidase; [2]) is reported as < 200 nM and the solubility [1] is reported as 25 µg/mL (≈ 64.4 µM).

For `CN1CCN(CCOc2nc3ccccc3n2C(=O)NCC#Cc2ccccc2)CC1` [Example 348, 2-(2-(4-Methylpiperazin-1-yl)ethoxy)-N-(3-phenylprop-2-yn-1-yl)-1H-benzo[d]imidazole-1-carboxamide], the IC50 (acid ceramidase; [2]) was < 200 nM and the solubility [1] was 8 µg/mL (≈ 19.2 µM).

An IC50 (acid ceramidase; [2]) of 200 to 1000 nM and a solubility [1] of 37 µg/mL (≈ 88.4 µM) were found for `CN1CCN(C2CN(c3cccc4c3ncn4C(=O)NCCc3ccccc3)C2)CC1` [Example 349, 4-(3-(4-Methylpiperazin-1-yl)azetidin-1-yl)-N-phenethyl-1H-benzo[d]imidazole-1-carboxamide] in this work.

With `CN1CCC2(CC1)CN(c1cccc3c1ncn3C(=O)NCCOc1ccccc1)C2` [Example 350, 4-(7-Methyl-2,7-diazaspiro[3.5]nonan-2-yl)-N-(2-phenoxyethyl)-1H-benzo[d]imidazole-1-carboxamide] the IC50 (acid ceramidase; [2]) was < 200 nM and the solubility [1] was 35 µg/mL (≈ 83.4 µM).

For `CN1CC2(CCN(c3cccc4c3ncn4C(=O)NCCOc3ccccc3)CC2)C1` [Example 351, 4-(2-Methyl-2,7-diazaspiro[3.5]nonan-7-yl)-N-(2-phenoxyethyl)-1H-benzo[d]imidazole-1-carboxamide], the IC50 (acid ceramidase; [2]) was < 200 nM and the solubility [1] was 33 µg/mL (≈ 78.7 µM).

With `CN1CCN(c2cccc3c2ncn3C(=O)NCCC#Cc2ccccc2)CC1` [Example 352, 4-(4-Methylpiperazin-1-yl)-N-(4-phenylbut-3-yn-1-yl)-1H-benzo[d]imidazole-1-carboxamide] the IC50 (acid ceramidase; [2]) was < 200 nM and the solubility [1] was 2 µg/mL (≈ 5.16 µM).

In the case of `CN(C)C1CN(c2cccc3c2ncn3C(=O)NCCOc2ccccc2)C1` [Example 353, 4-(3-(Dimethylamino)azetidin-1-yl)-N-(2-phenoxyethyl)-1H-benzo[d]imidazole-1-carboxamide], the IC50 (acid ceramidase; [2]) is reported as < 200 nM and the solubility [1] is reported as 16 µg/mL (≈ 42.2 µM).

In the case of `CNC1CN(c2cccc3c2ncn3C(=O)NCCOc2ccccc2)C1` [Example 354, 4-(3-(Methylamino)azetidin-1-yl)-N-(2-phenoxyethyl)-1H-benzo[d]imidazole-1-carboxamide], the IC50 (acid ceramidase; [2]) is reported as > 1000 nM and the solubility [1] is reported as 19 µg/mL (≈ 52 µM).
